Drawing on paper PMC4809288, “Formation of β-glucogallin, the precursor of ellagic acid in strawberry and raspberry” (Journal of Experimental Botany, 2016), this text covers Km for four compounds.

Each structure is given as a SMILES string.

T1 sequence (Q66PF4 whole entry): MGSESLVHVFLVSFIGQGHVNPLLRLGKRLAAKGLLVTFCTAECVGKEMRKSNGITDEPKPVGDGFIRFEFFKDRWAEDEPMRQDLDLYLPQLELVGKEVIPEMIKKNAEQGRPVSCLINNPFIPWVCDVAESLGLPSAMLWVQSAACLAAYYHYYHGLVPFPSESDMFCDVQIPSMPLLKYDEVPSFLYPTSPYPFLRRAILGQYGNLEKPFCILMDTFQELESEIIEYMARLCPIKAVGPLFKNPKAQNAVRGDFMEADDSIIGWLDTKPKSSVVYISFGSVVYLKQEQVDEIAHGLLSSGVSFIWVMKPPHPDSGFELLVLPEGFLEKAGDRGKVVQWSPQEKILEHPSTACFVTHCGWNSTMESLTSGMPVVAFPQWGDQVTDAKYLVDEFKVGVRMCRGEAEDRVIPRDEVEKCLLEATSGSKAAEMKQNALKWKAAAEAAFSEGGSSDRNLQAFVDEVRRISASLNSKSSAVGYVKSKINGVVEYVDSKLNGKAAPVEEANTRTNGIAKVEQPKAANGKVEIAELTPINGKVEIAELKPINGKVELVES

The experiment concerns the target T1, FaGT2* (Fragaria x ananassa, UniProt Q66PF4).
T1 construct: gene GT2; full-length ORF, N-terminal GST tag kept (pGEX-4T-1), E. coli BL21(DE3) pLysS; natural allele of FaGT2 with eight amino acid differences, of which R230, E420, I422 (FaGT2: S230, D420, V422) are given
Put plainly: radiochemical UDP-[…]glucose transfer assay, butanol extraction, LSC; Hanes-Woolf and non-linear fit. It is filed as biochemical. The note with it: 100 mM Tris-HCl pH 7.0, 30 °C, 30 min, fixed UDP-glucose (10 010 pmol); GST fusion.
`O=C(O)c1ccc(O)cc1` [4-Hydroxybenzoic acid]: the Km is 315 ± 8.4 µM. In the case of `COc1cc(/C=C/C(=O)O)cc(OC)c1O` [Sinapic acid], the Km is 35 ± 3 µM. In the case of `COc1cc(C(=O)O)cc(OC)c1O` [Syringic acid], the Km turned out to be 262 ± 7 µM. Regarding `COc1cc(C(=O)O)ccc1O` [Vanillic acid], the Km amounted to 364 ± 12.8 µM.

By Km is commonly meant the substrate concentration at which the rate is half of its maximum.
